In US20160168118A1, “N-(5-QUINOLIN-6-YL)PYRIDIN-3-YL) BENZSULFAMIDE DERIVATIVES, PREPARATION METHOD AND THERAPEUTIC USE THEREOF” (SECOND MILITARY MEDICAL UNIVERSITY, PLA, priority 2012, published 2016):
≈ marks a conversion by molar mass, not a printed value.

Columns and labels:
PI3Kγ = PI3Kγ (Homo sapiens, UniProt P48736); experiment: ADP-Glo Luminescent Kinase Assay, PI3Kγ; assay type: biochemical; conditions: read-out: IC50 on PI3K gamma
[1] = system: U87MG (human brain star glioblastoma); experiment: MTT assay, U87MG; assay type: cell-based; conditions: U-87 MG, 72 h
Protocol: (§1) 1. Sample preparation: After dissolved with DMSO (Merck), PBS (−) was added to make 1000 μg/ml solution or a uniform suspension, and then diluted with PBS (−) containing the DMSO. Doxorubicin (DOX) was used as the positive control drug.
(§2) 2. Cell Line • 1) A549 (human lung cancer cells); 2) HCT116 (human colon cancer cells); 3) HepG2 (human hepatoma cells); 4) ZR-75-30 (human breast cancer cells); 5) U87MG (human brain star glioblastoma)
(§3) DMEM+5-10% FBS+double resistant
(§4) MTT assay. 100 μl cell suspension was added at a concentration of 4˜5×10^4 cells/ml to each well of a 96-well plate, and was set at 37° C., 5% CO2 in the incubator. After 24 h, the sample solution was added, 10 μl/hole, double wells were set, 37° C., acting for 72 h at 5% CO2. […] of 5 mg/ml was added to each well, the dissolving liquid was added after acted for 4 h, 100 μl/hole, kept in the incubator, and read 570 nm OD with MK-2 automatic microplate reader after dissolution.

[2] = system: A549 (human lung cancer cells); experiment: MTT assay, A549; assay type: cell-based; conditions: 72 h
Protocol: as §1, §2, §3, §4

PI3Kα = PI3Kα (Homo sapiens, UniProt P42336); experiment: Kinase-Glo Luminescent Kinase Assay, PI3Kα; assay type: biochemical
Sequence of PI3Kα (P42336 whole entry, species assumed): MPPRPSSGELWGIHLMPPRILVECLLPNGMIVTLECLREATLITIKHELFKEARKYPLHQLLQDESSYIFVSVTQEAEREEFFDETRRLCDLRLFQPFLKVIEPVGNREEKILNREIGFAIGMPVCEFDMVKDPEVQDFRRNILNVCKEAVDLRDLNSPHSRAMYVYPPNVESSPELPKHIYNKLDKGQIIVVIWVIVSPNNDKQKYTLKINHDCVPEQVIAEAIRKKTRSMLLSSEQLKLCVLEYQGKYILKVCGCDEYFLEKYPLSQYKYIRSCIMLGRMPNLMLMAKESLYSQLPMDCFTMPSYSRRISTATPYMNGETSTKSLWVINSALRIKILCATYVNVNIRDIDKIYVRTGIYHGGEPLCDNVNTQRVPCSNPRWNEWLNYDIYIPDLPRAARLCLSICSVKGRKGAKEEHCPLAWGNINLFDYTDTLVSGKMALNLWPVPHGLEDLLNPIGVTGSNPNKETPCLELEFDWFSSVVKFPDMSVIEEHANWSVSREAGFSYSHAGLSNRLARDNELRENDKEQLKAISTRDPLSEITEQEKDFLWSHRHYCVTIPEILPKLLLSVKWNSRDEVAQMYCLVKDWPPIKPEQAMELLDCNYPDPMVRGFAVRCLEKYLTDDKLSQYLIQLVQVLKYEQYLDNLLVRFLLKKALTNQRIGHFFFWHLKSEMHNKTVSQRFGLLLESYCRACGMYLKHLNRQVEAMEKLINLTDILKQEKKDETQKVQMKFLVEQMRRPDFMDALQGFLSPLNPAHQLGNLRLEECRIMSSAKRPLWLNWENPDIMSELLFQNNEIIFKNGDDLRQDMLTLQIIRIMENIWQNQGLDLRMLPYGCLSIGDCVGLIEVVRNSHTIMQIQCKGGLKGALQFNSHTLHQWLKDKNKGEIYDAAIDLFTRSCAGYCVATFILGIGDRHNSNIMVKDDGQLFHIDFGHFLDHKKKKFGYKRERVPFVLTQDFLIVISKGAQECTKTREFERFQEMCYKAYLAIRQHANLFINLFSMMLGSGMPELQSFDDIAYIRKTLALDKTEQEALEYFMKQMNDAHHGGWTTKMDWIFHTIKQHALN
Sequence of PI3Kα (P27986 whole entry partner, species assumed): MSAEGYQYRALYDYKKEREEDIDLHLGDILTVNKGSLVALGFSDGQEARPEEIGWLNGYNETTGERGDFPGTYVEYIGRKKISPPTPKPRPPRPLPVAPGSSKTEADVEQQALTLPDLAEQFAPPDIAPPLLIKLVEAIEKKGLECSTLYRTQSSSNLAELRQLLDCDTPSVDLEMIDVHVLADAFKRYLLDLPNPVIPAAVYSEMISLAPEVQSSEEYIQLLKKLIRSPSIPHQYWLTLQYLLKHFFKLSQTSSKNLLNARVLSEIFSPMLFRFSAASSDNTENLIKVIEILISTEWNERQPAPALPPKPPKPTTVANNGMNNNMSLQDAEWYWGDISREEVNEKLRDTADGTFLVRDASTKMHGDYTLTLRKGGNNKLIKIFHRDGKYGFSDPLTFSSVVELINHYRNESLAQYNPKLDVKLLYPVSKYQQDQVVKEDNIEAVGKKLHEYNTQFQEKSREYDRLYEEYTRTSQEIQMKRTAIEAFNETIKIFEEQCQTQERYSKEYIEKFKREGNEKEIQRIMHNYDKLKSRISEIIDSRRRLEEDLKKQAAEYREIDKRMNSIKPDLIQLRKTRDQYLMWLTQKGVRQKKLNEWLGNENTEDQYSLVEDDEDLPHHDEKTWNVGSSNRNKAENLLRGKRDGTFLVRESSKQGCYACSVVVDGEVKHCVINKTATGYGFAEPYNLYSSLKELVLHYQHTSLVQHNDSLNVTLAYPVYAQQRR

mTOR = mTOR (Homo sapiens, UniProt P42345); experiment: Lance Ultra Assay, mTOR; assay type: biochemical
[3] = system: HCT116 (human colon cancer cells); experiment: MTT assay, HCT116; assay type: cell-based; conditions: HCT-116, 72 h
PI3Kβ = PI3Kβ (Homo sapiens, UniProt P42338); experiment: ADP-Glo Luminescent Kinase Assay, PI3Kβ; assay type: biochemical; conditions: read-out: IC50 on PI3K beta
Sequence of PI3Kβ (P42338 whole entry, species assumed): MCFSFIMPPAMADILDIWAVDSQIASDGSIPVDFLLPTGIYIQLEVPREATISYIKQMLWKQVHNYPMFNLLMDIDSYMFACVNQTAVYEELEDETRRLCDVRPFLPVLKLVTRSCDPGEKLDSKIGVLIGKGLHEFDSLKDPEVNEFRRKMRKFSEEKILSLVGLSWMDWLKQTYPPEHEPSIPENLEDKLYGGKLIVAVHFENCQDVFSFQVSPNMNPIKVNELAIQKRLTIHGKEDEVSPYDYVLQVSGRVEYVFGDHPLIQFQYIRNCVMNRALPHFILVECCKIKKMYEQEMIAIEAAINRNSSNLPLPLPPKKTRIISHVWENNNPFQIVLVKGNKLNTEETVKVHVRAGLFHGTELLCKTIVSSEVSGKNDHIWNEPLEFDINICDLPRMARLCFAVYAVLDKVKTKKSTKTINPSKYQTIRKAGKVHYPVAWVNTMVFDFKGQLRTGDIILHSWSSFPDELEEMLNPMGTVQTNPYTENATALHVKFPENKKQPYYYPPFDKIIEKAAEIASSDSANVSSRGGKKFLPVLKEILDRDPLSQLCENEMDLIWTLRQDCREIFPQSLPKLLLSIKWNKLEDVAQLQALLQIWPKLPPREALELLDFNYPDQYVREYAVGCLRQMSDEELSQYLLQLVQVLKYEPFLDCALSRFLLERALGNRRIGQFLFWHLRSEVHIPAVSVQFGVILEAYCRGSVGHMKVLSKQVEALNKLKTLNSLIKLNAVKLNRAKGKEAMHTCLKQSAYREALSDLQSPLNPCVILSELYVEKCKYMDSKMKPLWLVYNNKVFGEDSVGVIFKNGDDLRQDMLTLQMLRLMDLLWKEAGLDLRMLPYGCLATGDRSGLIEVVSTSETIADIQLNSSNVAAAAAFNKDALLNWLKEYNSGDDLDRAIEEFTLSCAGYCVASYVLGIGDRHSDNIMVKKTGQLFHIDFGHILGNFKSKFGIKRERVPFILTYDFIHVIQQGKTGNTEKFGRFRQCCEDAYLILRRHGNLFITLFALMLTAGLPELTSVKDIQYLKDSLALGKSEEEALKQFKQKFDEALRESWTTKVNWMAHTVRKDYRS
Sequence of PI3Kβ (P27986 whole entry partner, species assumed): as the sequence (P27986 whole entry partner, species assumed) above

PI3K delta = PI3K delta (Homo sapiens, UniProt O00329); experiment: Kinase-Glo Luminescent Kinase Assay, PI3K delta; assay type: biochemical
Sequence of PI3K delta (O00329 whole entry): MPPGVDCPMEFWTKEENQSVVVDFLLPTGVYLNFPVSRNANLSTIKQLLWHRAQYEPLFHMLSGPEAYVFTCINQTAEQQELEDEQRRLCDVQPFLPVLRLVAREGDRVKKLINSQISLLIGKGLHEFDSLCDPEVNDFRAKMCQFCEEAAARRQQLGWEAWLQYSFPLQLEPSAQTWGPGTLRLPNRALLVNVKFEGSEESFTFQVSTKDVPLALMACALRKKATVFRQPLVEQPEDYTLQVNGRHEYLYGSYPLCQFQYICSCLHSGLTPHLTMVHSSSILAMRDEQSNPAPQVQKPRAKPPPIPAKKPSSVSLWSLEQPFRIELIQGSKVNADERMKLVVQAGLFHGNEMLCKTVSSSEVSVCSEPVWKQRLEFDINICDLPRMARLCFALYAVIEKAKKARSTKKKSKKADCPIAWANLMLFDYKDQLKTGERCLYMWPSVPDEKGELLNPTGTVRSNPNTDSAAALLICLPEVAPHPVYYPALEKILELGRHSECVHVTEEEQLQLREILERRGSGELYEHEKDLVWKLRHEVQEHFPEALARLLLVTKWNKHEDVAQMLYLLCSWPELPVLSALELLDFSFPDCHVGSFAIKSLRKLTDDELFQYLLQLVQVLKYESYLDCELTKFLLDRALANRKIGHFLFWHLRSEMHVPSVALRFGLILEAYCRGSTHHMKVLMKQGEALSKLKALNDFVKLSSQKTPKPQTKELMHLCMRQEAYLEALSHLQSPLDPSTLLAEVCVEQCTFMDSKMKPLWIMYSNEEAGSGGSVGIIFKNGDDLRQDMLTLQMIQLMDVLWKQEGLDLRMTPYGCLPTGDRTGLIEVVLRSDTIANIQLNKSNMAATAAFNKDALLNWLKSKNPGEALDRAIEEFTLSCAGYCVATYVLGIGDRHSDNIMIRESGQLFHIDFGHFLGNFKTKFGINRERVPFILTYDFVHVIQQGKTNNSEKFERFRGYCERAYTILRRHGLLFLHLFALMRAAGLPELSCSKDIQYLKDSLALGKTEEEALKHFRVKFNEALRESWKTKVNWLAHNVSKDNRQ
Sequence of PI3K delta (P27986 whole entry partner): as the sequence (P27986 whole entry partner, species assumed) above

[4] = system: ZR-75-30 (human breast cancer cells); experiment: MTT assay, ZR-75-30; assay type: cell-based; conditions: 72 h
Protocol: as §1, §2, §3, §4

[5] = system: HepG2 (human hepatoma cells); experiment: MTT assay, HepG2; assay type: cell-based; conditions: 72 h
Protocol: as §1, §2, §3, §4

Sequence of PI3Kγ (P48736 whole entry, species assumed): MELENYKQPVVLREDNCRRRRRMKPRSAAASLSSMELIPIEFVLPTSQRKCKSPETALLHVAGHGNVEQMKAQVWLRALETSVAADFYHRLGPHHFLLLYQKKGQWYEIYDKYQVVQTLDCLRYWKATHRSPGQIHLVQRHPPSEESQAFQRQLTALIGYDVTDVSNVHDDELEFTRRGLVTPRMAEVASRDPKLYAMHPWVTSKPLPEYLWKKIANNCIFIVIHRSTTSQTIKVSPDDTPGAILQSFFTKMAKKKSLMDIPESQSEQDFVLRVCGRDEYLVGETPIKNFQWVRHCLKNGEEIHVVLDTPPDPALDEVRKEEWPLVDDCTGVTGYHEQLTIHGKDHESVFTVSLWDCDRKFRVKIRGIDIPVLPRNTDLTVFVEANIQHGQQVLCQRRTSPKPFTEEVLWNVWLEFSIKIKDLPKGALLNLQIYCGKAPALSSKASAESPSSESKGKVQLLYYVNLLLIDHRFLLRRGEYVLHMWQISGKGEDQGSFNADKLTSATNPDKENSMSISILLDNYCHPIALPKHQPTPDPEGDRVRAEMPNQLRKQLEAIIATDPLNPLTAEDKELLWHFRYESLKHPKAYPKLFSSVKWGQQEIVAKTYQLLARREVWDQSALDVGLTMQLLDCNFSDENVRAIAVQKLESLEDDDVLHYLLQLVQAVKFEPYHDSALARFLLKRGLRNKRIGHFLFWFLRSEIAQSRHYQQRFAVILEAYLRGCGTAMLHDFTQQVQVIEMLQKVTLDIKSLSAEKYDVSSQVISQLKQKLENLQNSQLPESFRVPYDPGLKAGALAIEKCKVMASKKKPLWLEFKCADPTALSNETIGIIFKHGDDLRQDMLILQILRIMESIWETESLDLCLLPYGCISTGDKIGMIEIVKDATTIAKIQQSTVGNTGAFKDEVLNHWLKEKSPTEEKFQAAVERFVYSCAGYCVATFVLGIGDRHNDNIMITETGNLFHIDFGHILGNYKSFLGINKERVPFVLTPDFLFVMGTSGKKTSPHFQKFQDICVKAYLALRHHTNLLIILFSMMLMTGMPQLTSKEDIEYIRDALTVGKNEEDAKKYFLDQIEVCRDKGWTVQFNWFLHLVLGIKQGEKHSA

## COc1ncc(-c2ccc3nccc(-n4cncn4)c3c2)cc1NS(=O)(=O)c1ccc(F)cc1F [Compound 1, N-(5-(4-(1H-1,2,4-triazole-1-yl)quinolin-6-yl)-2-methoxypyridine-3-yl)-2,4-difluorobenzenesulfonamide]
other
  melting point: 123 to 124 °C
PI3Kγ
  IC50: 0.47 nM
[1]
  IC50: 0.475 µg/mL (≈ 0.961 µM)
[2]
  IC50: 0.00819 µg/mL (≈ 0.0166 µM)
PI3Kα
  IC50: 0.55 nM
mTOR
  IC50: 1.1 nM
[3]
  IC50: 0.011 µg/mL (≈ 0.0222 µM)
PI3Kβ
  IC50: 3.6 nM
PI3K delta
  IC50: 2.6 nM
[4]
  IC50: 0.454 µg/mL (≈ 0.918 µM)
[5]
  IC50: 1.37 µg/mL (≈ 2.77 µM)

## COc1ncc(-c2ccc3nccc(N4CCCC4)c3c2)cc1NS(=O)(=O)c1ccc(F)cc1F [Compound 2]
other
  melting point: 223 to 225 °C
[1]
  IC50: 3.32 µg/mL (≈ 6.69 µM)
[2]
  IC50: 1.69 µg/mL (≈ 3.41 µM)
PI3Kα
  IC50: > 100 nM
[3]
  IC50: 1.65 µg/mL (≈ 3.32 µM)
[4]
  IC50: 6.73 µg/mL (≈ 13.6 µM)
[5]
  IC50: 9.83 µg/mL (≈ 19.8 µM)

## COc1ncc(-c2ccc3nccc(N4CCOCC4)c3c2)cc1NS(=O)(=O)c1ccc(F)cc1F [Compound 3, N-(2-methoxy-5-(4-morpholinequinolin-6-yl)pyridin-3-yl)-2,4-difluorobenzenesulfonamide]
other
  melting point: 219 to 221 °C
[1]
  IC50: 64.7 µg/mL (≈ 126 µM)
[2]
  IC50: 1.23 µg/mL (≈ 2.4 µM)
PI3Kα
  IC50: 1.4 nM
[3]
  IC50: 2.27 µg/mL (≈ 4.43 µM)
[4]
  IC50: 2.16 µg/mL (≈ 4.21 µM)
[5]
  IC50: 11.5 µg/mL (≈ 22.4 µM)

## COc1ncc(-c2ccc3nccc(Cl)c3c2)cc1NS(=O)(=O)c1ccc(F)cc1F [Compound 4, N-(5-(4-chlorinequinolin-6-yl)-2-methoxypyridine-3-yl)-2,4-difluorobenzenesulfonamide]
other
  melting point: 171 to 173 °C
[1]
  IC50: > 100 µg/mL
[2]
  IC50: 1.36 µg/mL (≈ 2.94 µM)
PI3Kα
  IC50: 2.3 nM
[3]
  IC50: 3.04 µg/mL (≈ 6.59 µM)
[4]
  IC50: 2.59 µg/mL (≈ 5.61 µM)
[5]
  IC50: 2.26 µg/mL (≈ 4.89 µM)

## CCN(CC)Cc1ccc(-c2ccnc3ccc(-c4cnc(OC)c(NS(=O)(=O)c5ccc(F)cc5F)c4)cc23)cc1 [Compound 5, N-(5-(4-(4-((diethylamine)methyl)phenyl)quinolin-6-yl)-2-methoxypyridine-3-yl)-2,4-difluorobenzenesulfonamide]
other
  melting point: 106 to 108 °C
[1]
  IC50: 2.88 µg/mL (≈ 4.89 µM)
[2]
  IC50: 0.013 µg/mL (≈ 0.0221 µM)
PI3Kα
  IC50: 1.1 nM
[3]
  IC50: 0.00293 µg/mL (≈ 0.00498 µM)
[4]
  IC50: 0.783 µg/mL (≈ 1.33 µM)
[5]
  IC50: 0.613 µg/mL (≈ 1.04 µM)

## COc1ncc(-c2ccc3nccc(-c4ccc(C)cc4)c3c2)cc1NS(=O)(=O)c1ccc(F)cc1F [Compound 6, N-(2-methoxy-5-(4-(p-methylphenyl)quinolin-6-yl)pyridin-3-yl)-2,4-difluorobenzenesulfonamide]
other
  melting point: 175 to 176 °C
[1]
  IC50: 34.7 µg/mL (≈ 67 µM)
[2]
  IC50: 0.642 µg/mL (≈ 1.24 µM)
PI3Kα
  IC50: 4.5 nM
[3]
  IC50: 1.31 µg/mL (≈ 2.54 µM)
[4]
  IC50: 6.69 µg/mL (≈ 12.9 µM)
[5]
  IC50: 5.63 µg/mL (≈ 10.9 µM)

## COC(=O)c1ccc(-c2ccnc3ccc(-c4cnc(OC)c(NS(=O)(=O)c5ccc(F)cc5F)c4)cc23)cc1 [Compound 7, 4-(6-(5-(2,4-difluorobenzenesulfonamideyl)-6-methoxypyridine-3-yl)quinolin-4-yl)methyl benzoate]
other
  melting point: 69 to 72 °C
[1]
  IC50: 3.9 µg/mL (≈ 6.95 µM)
[2]
  IC50: 0.014 µg/mL (≈ 0.0249 µM)
PI3Kα
  IC50: 1.5 nM
[3]
  IC50: 0.277 µg/mL (≈ 0.493 µM)
[4]
  IC50: 1.74 µg/mL (≈ 3.1 µM)
[5]
  IC50: 1.16 µg/mL (≈ 2.07 µM)

## CCOC(=O)c1ccc(-c2ccnc3ccc(-c4cnc(OC)c(NS(=O)(=O)c5ccc(F)cc5F)c4)cc23)cc1 [Compound 8, 4-(6-(5-(2,4-difluorobenzenesulfonamideyl)-6-methoxypyridine-3-yl)quinolin-4-yl) ethyl benzoate]
other
  melting point: 90 to 92 °C
[1]
  IC50: 11.7 µg/mL (≈ 20.3 µM)
[2]
  IC50: 0.043 µg/mL (≈ 0.0747 µM)
PI3Kα
  IC50: 2.6 nM
[3]
  IC50: 0.235 µg/mL (≈ 0.408 µM)
[4]
  IC50: 2.45 µg/mL (≈ 4.26 µM)
[5]
  IC50: 2.65 µg/mL (≈ 4.6 µM)

## O=S(=O)(Nc1cc(-c2ccc3nccc(-n4cncn4)c3c2)cnc1Cl)c1ccc(F)cc1 [Compound 27, N-(5-(4-(1H-1,2,4-triazole-1-yl)quinolin-6-yl)-2-chlorinepyridin-3-yl)-4-fluorobenzenesulfonamide]
other
  melting point: 258 to 261 °C
[2]
  IC50: 1.16 µg/mL (≈ 2.41 µM)
PI3Kα
  IC50: 0.81 nM
[3]
  IC50: 1.22 µg/mL (≈ 2.54 µM)
[5]
  IC50: 9.43 µg/mL (≈ 19.6 µM)

## COc1ncc(-c2ccc3nccc(-c4ccc(CN(C)C)cc4)c3c2)cc1NS(=O)(=O)c1ccc(F)cc1 [Compound 31, N-(5-(4-(4-((dimethylamine)methyl)phenyl)quinolin-6-yl)-2-methoxypyridine-3-yl)-4-fluorobenzenesulfonamide]
other
  melting point: 150 to 152 °C
[2]
  IC50: 0.2 µg/mL (≈ 0.369 µM)
PI3Kα
  IC50: 2.1 nM
[3]
  IC50: 1.02 µg/mL (≈ 1.88 µM)
[5]
  IC50: 1.64 µg/mL (≈ 3.02 µM)

## CN(C)Cc1ccc(-c2ccnc3ccc(-c4cnc(Cl)c(NS(=O)(=O)c5ccc(F)cc5F)c4)cc23)cc1 [Compound 32, N-(5-(4-(4-((dimethylamine)methyl)phenyl)quinolin-6-yl)-2-chlorinepyridin-3-yl)-2,4-difluorobenzenesulfonamide]
other
  melting point: 160 to 164 °C
[2]
  IC50: 2.12 µg/mL (≈ 3.75 µM)
PI3Kα
  IC50: 0.69 nM
[3]
  IC50: 1.03 µg/mL (≈ 1.82 µM)
[5]
  IC50: 2.18 µg/mL (≈ 3.86 µM)

## O=S(=O)(Nc1cc(-c2ccc3nccc(-c4ccc(Cn5cncn5)cc4)c3c2)cnc1Cl)c1ccc(F)cc1 [Compound 33, N-(5-(4-(4-((1H-1,2,4-triazole-1-yl)methyl)phenyl)quinolin-6-yl)-2-chlorinepyridin-3-yl)-4-fluorobenzenesulfonamide]
other
  melting point: 235 to 236 °C
[2]
  IC50: 1.52 µg/mL (≈ 2.66 µM)
PI3Kα
  IC50: 0.73 nM
[3]
  IC50: 1.43 µg/mL (≈ 2.5 µM)
[5]
  IC50: 5.47 µg/mL (≈ 9.58 µM)

## COc1ncc(-c2ccc3nccc(-c4ccc(Cn5cncn5)cc4)c3c2)cc1NS(=O)(=O)c1ccc(F)cc1 [Compound 34, N-(5-(4-(4-((1H-1,2,4-triazole-1-yl)methyl)phenyl)quinolin-6-yl)-2-methoxypyridine-3-yl)-4-fluorobenzenesulfonamide]
other
  melting point: 150 to 152 °C
[2]
  IC50: 0.28 µg/mL (≈ 0.494 µM)
PI3Kα
  IC50: 0.91 nM
[3]
  IC50: 1.15 µg/mL (≈ 2.03 µM)
[5]
  IC50: 7.18 µg/mL (≈ 12.7 µM)

## O=S(=O)(Nc1cc(-c2ccc3nccc(-c4ccc(Cn5cncn5)cc4)c3c2)cnc1Cl)c1ccc(F)cc1F [Compound 35, N-(5-(4-(4-((1H-1,2,4-triazole-1-yl)methyl)phenyl)quinolin-6-yl)-2-chlorinepyridin-3-yl)-2,4-difluorobenzenesulfonamide]
other
  melting point: 145 to 148 °C
[2]
  IC50: 5.66 µg/mL (≈ 9.61 µM)
PI3Kα
  IC50: 0.82 nM
[3]
  IC50: 1.64 µg/mL (≈ 2.78 µM)
[5]
  IC50: 1.2 µg/mL (≈ 2.04 µM)

## CN(CCO)Cc1ccc(-c2ccnc3ccc(-c4cnc(Cl)c(NS(=O)(=O)c5ccc(F)cc5)c4)cc23)cc1 [Compound 36, N-(5-(4-(4-(((2-hydroxyethyl)(methyl)amino)methyl)phenyl)quinolin-6-yl)-2-chlorinepyridin-3-yl)-4-fluorobenzenesulfonamide]
other
  melting point: 214 to 217 °C
[2]
  IC50: 0.13 µg/mL (≈ 0.225 µM)
PI3Kα
  IC50: 1 nM
[3]
  IC50: 1.06 µg/mL (≈ 1.84 µM)
[5]
  IC50: 1.1 µg/mL (≈ 1.91 µM)

## CN(CCO)Cc1ccc(-c2ccnc3ccc(-c4cnc(Cl)c(NS(=O)(=O)c5ccc(F)cc5F)c4)cc23)cc1 [Compound 37, N-(5-(4-(4-(((2-hydroxyethyl)(methyl)amino)methyl)phenyl)quinolin-6-yl)-2-chlorinepyridin-3-yl)-2,4-difluorobenzenesulfonamide]
other
  melting point: 132 to 135 °C
[2]
  IC50: 1.08 µg/mL (≈ 1.81 µM)
PI3Kα
  IC50: 0.75 nM
[3]
  IC50: 1.89 µg/mL (≈ 3.18 µM)
[5]
  IC50: 1.71 µg/mL (≈ 2.87 µM)
